pIC50: −log10 of the molar value.
Experiments:
Axl = target: T1, Axl (Homo sapiens, UniProt P30530); assay: HTRF KinEASE-TK biochemical potency assay, AXL; set-up: purchased Invitrogen; conditions: 5 nM AXL, 700 μM ATP, 800 nM TK Substrate-biotin
T1 sequence (P30530 26-894): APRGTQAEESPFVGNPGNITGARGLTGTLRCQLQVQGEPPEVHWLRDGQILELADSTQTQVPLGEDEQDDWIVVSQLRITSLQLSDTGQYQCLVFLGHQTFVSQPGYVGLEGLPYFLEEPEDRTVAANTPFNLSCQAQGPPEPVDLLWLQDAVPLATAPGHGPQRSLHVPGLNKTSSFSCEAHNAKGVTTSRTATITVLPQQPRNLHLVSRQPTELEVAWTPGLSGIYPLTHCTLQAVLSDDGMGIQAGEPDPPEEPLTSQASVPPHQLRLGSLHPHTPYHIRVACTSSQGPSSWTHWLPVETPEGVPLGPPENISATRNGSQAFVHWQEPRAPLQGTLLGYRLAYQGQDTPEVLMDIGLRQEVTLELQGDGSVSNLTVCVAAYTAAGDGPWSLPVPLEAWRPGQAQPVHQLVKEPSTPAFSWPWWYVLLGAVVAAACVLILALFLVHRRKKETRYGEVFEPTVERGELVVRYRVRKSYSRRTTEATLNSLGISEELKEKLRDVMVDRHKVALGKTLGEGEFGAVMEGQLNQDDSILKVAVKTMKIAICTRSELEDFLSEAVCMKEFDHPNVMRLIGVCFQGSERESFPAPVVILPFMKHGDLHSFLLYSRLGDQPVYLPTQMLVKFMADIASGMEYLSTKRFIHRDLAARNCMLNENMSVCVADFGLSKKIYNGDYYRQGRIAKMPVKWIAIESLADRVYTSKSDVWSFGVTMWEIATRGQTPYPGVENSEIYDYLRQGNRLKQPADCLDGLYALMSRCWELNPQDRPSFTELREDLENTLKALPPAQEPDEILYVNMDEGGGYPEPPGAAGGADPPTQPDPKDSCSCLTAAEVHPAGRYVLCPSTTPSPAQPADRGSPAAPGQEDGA
In short: (§1)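 Recombinant human kinase preincubated 1 h at RT with compound, then reacted 2 h at RT with final 5 nM AXL or 1 nM TYRO3/MER, 800 nM TK Substrate-biotin and 700 μM ATP in HEPES pH 7.4, 10 mM MgCl2, 1% DMSO. Phosphorylation read by HTRF 665/620 ratio, expressed as percent activity.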

human TYRO3 = target: T2, human TYRO3 (Homo sapiens, UniProt Q06418); assay: HTRF KinEASE-TK biochemical potency assay, TYRO3; conditions: 1 nM TYRO3, 700 μM ATP, 800 nM TK Substrate-biotin
T2 construct: purchased Invitrogen
T2 sequence (Q06418 41-890): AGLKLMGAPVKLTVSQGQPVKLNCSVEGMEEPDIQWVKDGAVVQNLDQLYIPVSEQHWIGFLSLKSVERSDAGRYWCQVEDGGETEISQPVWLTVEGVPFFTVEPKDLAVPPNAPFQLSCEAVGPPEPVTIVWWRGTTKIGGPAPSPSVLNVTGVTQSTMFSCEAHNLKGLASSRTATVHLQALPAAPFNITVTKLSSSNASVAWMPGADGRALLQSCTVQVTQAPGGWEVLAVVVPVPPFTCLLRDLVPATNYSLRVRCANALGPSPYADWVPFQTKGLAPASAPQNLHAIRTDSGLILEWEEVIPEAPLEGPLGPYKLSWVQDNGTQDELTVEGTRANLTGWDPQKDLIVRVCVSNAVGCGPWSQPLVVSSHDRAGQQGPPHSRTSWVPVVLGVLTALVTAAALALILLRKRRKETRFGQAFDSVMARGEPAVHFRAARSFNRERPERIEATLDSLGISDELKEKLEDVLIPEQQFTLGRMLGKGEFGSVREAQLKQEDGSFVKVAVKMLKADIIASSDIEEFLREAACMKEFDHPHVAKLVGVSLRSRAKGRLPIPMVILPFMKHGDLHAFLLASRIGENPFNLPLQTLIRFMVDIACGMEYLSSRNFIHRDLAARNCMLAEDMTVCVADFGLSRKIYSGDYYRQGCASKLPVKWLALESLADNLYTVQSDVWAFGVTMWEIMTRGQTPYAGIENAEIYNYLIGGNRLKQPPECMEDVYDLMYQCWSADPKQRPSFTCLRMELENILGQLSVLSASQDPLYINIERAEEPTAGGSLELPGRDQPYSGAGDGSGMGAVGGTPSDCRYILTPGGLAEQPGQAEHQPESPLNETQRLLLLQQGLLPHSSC
In short: as §1

SMILES	pIC50 (Axl)	pIC50 (human TYRO3)
C[C@@H]1CCCN1C1CCc2ccc(-c3cnc4[nH]nc(-c5ccc(S(=O)(=O)C6CC6)cc5)c4c3)cc2CC1 (stereo partly drawn) [Example 39, 3-(4-(Cyclopropylsulfonyl)phenyl)-5-(7-((R)-2-methylpyrrolidin-1-yl)-6,7,8,9-tetrahydro-5H-benzo[7]annulen-2-yl)-1H-pyrazolo[3,4-b]pyridine]	> 7.00	6.00 to 7.00
Cc1cc(-c2n[nH]c3ncc(-c4ccc5c(c4)CCN(C(=O)C(C)C)CC5)cc23)ccc1C(=O)N1CCNCC1 [Example 48, 2-Methyl-1-(7-{3-[3-methyl-4-(piperazine-1-carbonyl)phenyl]-1H-pyrazolo[3,4-b]pyridin-5-yl}-2,3,4,5-tetrahydro-1H-3-benzazepin-3-yl)propan-1-one]	> 7.00	6.00 to 7.00
c1cc2c(cc1-c1cnc3[nH]nc(-c4ccc(N5C[C@H]6C[C@@H]5CO6)cc4)c3c1)CC[C@@H](N1C3COCC1C3)CC2 [Example 126, (1R,4R)-5-(4-{5-[(7S)-7-{3-oxa-6-azabicyclo[3.1.1]heptan-6-yl}-6,7,8,9-tetrahydro-5H-benzo[7]annulen-2-yl]-2H-pyrazolo[3,4-b]pyridin-3-yl}phenyl)-2-oxa-5-azabicyclo[2.2.1]heptane]	> 7.00	< 6.00
COc1cc(-c2n[nH]c3ncc(-c4ccc5c(c4)CCC(C)(N4CCC[C@H]4C)CC5)cc23)ccc1OC[C@H]1COCCO1 (stereo partly drawn) [Example 114, (2R)-1-{2-[3-(4-{[(2R)-1,4-Dioxan-2-yl]methoxy}-3-methoxyphenyl)-1H-pyrazolo[3,4-b]pyridin-5-yl]-7-methyl-6,7,8,9-tetrahydro-5H-benzo[7]annulen-7-yl}-2-methylpyrrolidine]	> 7.00	6.00 to 7.00
CC(C)(O)c1ccc(-c2n[nH]c3ncc(-c4ccc5c(c4)CCC(N4CCCC4)CC5)cc23)cc1Cl (stereo not shown) [Example 11, 2-(2-Chloro-4-{5-[7-(pyrrolidin-1-yl)-6,7,8,9-tetrahydro-5H-benzo[7]annulen-2-yl]-1H-pyrazolo[3,4-b]pyridin-3-yl}phenyl)propan-2-ol]	> 7.00	6.00 to 7.00
Cc1cc(-c2n[nH]c3ncc(-c4ccc5c(c4)CC[C@@H](N4CCCC4)CC5)cc23)cc(Cl)c1C(=O)N1CCNCC1 [Example 56, 1-(2-Chloro-6-methyl-4-{5-[(7S)-7-(pyrrolidin-1-yl)-6,7,8,9-tetrahydro-5H-benzo[7]annulen-2-yl]-1H-pyrazolo[3,4-b]pyridin-3-yl}benzoyl)piperazine]	> 7.00	> 7.00
CCC1(N2CCC[C@H]2C)CCc2ccc(-c3cnc4[nH]nc(-c5ccc(S(=O)(=O)C6CC6)cc5)c4c3)cc2CC1 (stereo partly drawn) [Example 6, (2R)-1-(2-{3-[4-(Cyclopropanesulfonyl)phenyl]-1H-pyrazolo[3,4-b]pyridin-5-yl}-7-ethyl-6,7,8,9-tetrahydro-5H-benzo[7]annulen-7-yl)-2-methylpyrrolidine]	> 7.00	6.00 to 7.00
C[C@@H]1CCCN1C1CCc2ccc(-c3cnc4[nH]nc(-c5ccc(C(C)(C)O)c(C(F)(F)F)c5)c4c3)cc2CC1 (stereo partly drawn) [Example 20, 2-[4-(5-{7-[(2R)-2-Methylpyrrolidin-1-yl]-6,7,8,9-tetrahydro-5H-benzo[7]annulen-2-yl}-1H-pyrazolo[3,4-b]pyridin-3-yl)-2-(trifluoromethyl)phenyl]propan-2-ol]	> 7.00	> 7.00
C[C@H]1CCCN1C1(C)CCc2ccc(-c3cnc4[nH]nc(-c5ccc(S(=O)(=O)C6CC6)cc5)c4c3)cc2CC1 (stereo partly drawn) [Example 5, (2S)-1-(2-{3-[4-(Cyclopropanesulfonyl)phenyl]-1H-pyrazolo[3,4-b]pyridin-5-yl}-7-methyl-6,7,8,9-tetrahydro-5H-benzo[7]annulen-7-yl)-2-methylpyrrolidine]	> 7.00	> 7.00
C[C@@H]1CCCN1C1CCc2ccc(-c3cnc4[nH]nc(-c5ccc(C(C)(C)O)cn5)c4c3)cc2CC1 (stereo partly drawn) [Example 97, 2-[6-(5-{7-[(2R)-2-Methylpyrrolidin-1-yl]-6,7,8,9-tetrahydro-5H-benzo[7]annulen-2-yl}-1H-pyrazolo[3,4-b]pyridin-3-yl)pyridin-3-yl]propan-2-ol]	> 7.00	6.00 to 7.00
C[C@@H]1CCCN1C1CCc2ccc(-c3cnc4[nH]nc(-c5ccc(S(=O)(=O)C6CC6)cc5)c4c3)cc2C(C)(C)C1 (stereo partly drawn) [Example 109, (2R)-1-(2-{3-[4-(Cyclopropanesulfonyl)phenyl]-1H-pyrazolo[3,4-b]pyridin-5-yl}-9,9-dimethyl-6,7,8,9-tetrahydro-5H-benzo[7]annulen-7-yl)-2-methylpyrrolidine]	> 7.00	6.00 to 7.00

Further lines, results first:

pIC50 (Axl)	pIC50 (human TYRO3)	SMILES
> 7.00	6.00 to 7.00	C[C@@H]1CCCN1C1(C)CCc2ccc(-c3cnc4[nH]nc(-c5ccc(S(=O)(=O)C6CCC6)cc5)c4c3)cc2CC1 (stereo partly drawn) [Example 46, 3-(4-(Cyclobutylsulfonyl)phenyl)-5-(7-methyl-7-((R)-2-methylpyrrolidin-1-yl)-6,7,8,9-tetrahydro-5H-benzo[7]annulen-2-yl)-1H-pyrazolo[3,4-b]pyridine]
> 7.00	6.00 to 7.00	C[C@@H]1CCCN1C1CCc2ccc(-c3cnc4[nH]nc(-c5ccc(C6(O)CCC6)c(Cl)c5)c4c3)cc2CC1 (stereo partly drawn) [Example 62, 1-[2-Chloro-4-(5-{7-[(2R)-2-methylpyrrolidin-1-yl]-6,7,8,9-tetrahydro-5H-benzo[7]annulen-2-yl}-1H-pyrazolo[3,4-b]pyridin-3-yl)phenyl]cyclobutan-1-ol]
> 7.00	6.00 to 7.00	C[C@@H]1CCCN1[C@@H]1CCc2cc(-c3cnc4[nH]nc(-c5ccc(S(=O)(=O)C6CC6)cc5)c4c3)cnc2CC1 [Example 101, (2R)-1-(3-{3-[4-(Cyclopropanesulfonyl)phenyl]-1H-pyrazolo[3,4-b]pyridin-5-yl}-5H,6H,7H,8H,9H-cyclohepta[b]pyridin-7-yl)-2-methylpyrrolidine]
> 7.00	> 7.00	CCS(=O)(=O)c1ccc(-c2n[nH]c3ncc(-c4ccc5c(c4)CC[C@@H](N4CCCC4)CC5)cc23)cc1 [Example 41, (S)-3-(4-(Ethylsulfonyl)phenyl)-5-(7-(pyrrolidin-1-yl)-6,7,8,9-tetrahydro-5H-benzo[7]annulen-2-yl)-1H-pyrazolo[3,4-b]pyridine]
> 7.00	6.00 to 7.00	CC(C)(O)c1ccc(-c2n[nH]c3ncc(-c4ccc5c(c4)CCN(C4CCCC4)CC5)cc23)cn1 [Example 10, 2-{5-[5-(3-Cyclopentyl-2,3,4,5-tetrahydro-1H-3-benzazepin-7-yl)-1H-pyrazolo[3,4-b]pyridin-3-yl]pyridin-2-yl}propan-2-ol]
> 7.00	6.00 to 7.00	C[C@@H]1CCCN1C1CCc2ccc(-c3cnc4[nH]nc(-c5ccc(C(C)(C)O)c(Cl)c5)c4c3)cc2CC1 (stereo partly drawn) [Example 35, 2-(2-Chloro-4-(5-(7-((R)-2-methylpyrrolidin-1-yl)-6,7,8,9-tetrahydro-5H-benzo[7]annulen-2-yl)-1H-pyrazolo[3,4-b]pyridin-3-yl)phenyl)propan-2-ol]
